Results on four compounds are retold here after patent US20040161399A1, “Use of nonimmunosuppressive [$g(g)-hydroxy-n-methyl-l-leucine4]cyclosporin derivatives for treating hair loss” (priority 2001, published 2004).

The test system of test [1] is splenocytes (responder cells from BALB/c mice, stimulator cells from C57BL/6 mice). Description: Mixed Lymphocyte Reaction (MLR) method, 3H-thymidine incorporation. Format: cell-based. Particulars: qualitative statement. Here is the method: Evaluation of Non-Immunosuppressive Activity In Vitro
Responder cells from BALB/c mice were mixed with an equal number of stimulator cells from C57BL/6 mice pre-treated with mitomycin. […] After 4 days of incubation, ^3H-thymidine was added to the mixtures and incubated for an additional 4 hours. Then, the amount of thymidine incorporated into the cells was measured (liquid scintillation counter), and IC50 (μg/ml) of respective cyclosporins were calculated.
A general note: Incorporation of labelled thymidine or its analogues reports DNA synthesis.

The test system of a further test is Female C57BL/6 mice. Description: Evaluation of hair restoring effect in mice (topical application to shaved back). Particulars: for hair restoring / hair growth promoting effect (in words): qualitative statement; for Area rate of hair regrowth (%): C57BL/6 mice, hair-removed back, 100 μl of 0.1% w/v once a day for 30 days, visual examination. Format: in vivo. How it is done:
Evaluation of Hair Restoring Effect in Mice
Female C57BL/6 mice of ages 6 to 7 weeks were utilized. After removing hairs on the middle of the back with an electric shaver, the mice were weighed and randomly assigned to the test groups with an even distribution of weights. […] The results were determined by visual examination, in terms of degrees of hair regrowth. With respect to respective hair-removed areas, rates of new hair growth were examined and compared.

Starred links: 1 amine or outer side, 2 acyl side, 3 side chain; linkers in the order of their positions; H or OH if unused. Non-standard residues stand in square brackets, D forms with d. Residues, ends and D or L forms follow the SMILES beside them. AlaΨ(CSNH)dAla = C[C@H](N[*:1])C(=S)N[C@H](C)C(=O)[*:2]; MeBmt = C/C=C/C[C@@H](C)[C@@H](O)[C@H](NC)C(=O)O; NMeLeu(4-OH) = CN[C@@H](CC(C)(C)O)C(=O)O; NMeL = CN[C@@H](CC(C)C)C(=O)O; NMeV = CN[C@H](C(=O)O)C(C)C; dHiv = CC(C)[C@@H](O)C(=O)O; dNMeA = CN[C@H](C)C(=O)O; Abu = CC[C@H](N)C(=O)O; Sar = CNCC(=O)O

Turning to “[γ-hydroxy-N-methyl-L-leucine^4] cyclosporin A [reference compound]”, the “immunosuppressive activity (in words)” value in test [1] is listed as “no immunosuppressive activity”. Further, the “hair restoring / hair growth promoting effect (in words)” value in the test with Female C57BL/6 mice is “has a hair restoring effect”.
As for `C/C=C/C[C@@H](C)[C@@H](O)[C@H]1C(=O)N[C@@H](CC)C(=O)N(C)CC(=O)N(C)[C@@H](CC(C)(C)O)C(=O)N[C@@H](C(C)C)C(=O)N(C)[C@@H](CC(C)C)C(=O)N[C@@H](C)C(=S)N[C@H](C)C(=O)N(C)[C@@H](CC(C)C)C(=O)N(C)[C@@H](CC(C)C)C(=O)N(C)[C@@H](C(C)C)C(=O)N1C` [[γ-hydroxy-N-methyl-L-leucine^4][alaninethiomide^7, ^7ψ^8 CS—NH] cyclosporin A] (cyclo([MeBmt][Abu][Sar][NMeLeu(4-OH)]V[NMeL][AlaΨ(CSNH)dAla][NMeL][NMeL][NMeV])), the “Area rate of hair regrowth (%)” value with Female C57BL/6 mice came to 91%.
On to `C/C=C/C[C@@H](C)[C@@H](O)[C@H]1C(=O)N[C@@H]([C@@H](C)O)C(=O)N(C)CC(=O)N(C)[C@@H](CC(C)(C)O)C(=O)N[C@@H](CC(C)C)C(=O)N(C)[C@@H](CC(C)C)C(=O)N[C@@H](C)C(=O)O[C@H](C(C)C)C(=O)N(C)[C@@H](CC(C)C)C(=O)N[C@@H](CC(C)C)C(=O)N(C)[C@@H](C(C)C)C(=O)N1C` [[L-threonine^2][γ-hydroxy-N-methyl-L-leucine^4][L-leucine^5][D-2-hydroxyisovaleric acid^8][L-leucine^10] cyclosporin A] (cyclo([MeBmt]T[Sar][NMeLeu(4-OH)]L[NMeL]A[dHiv][NMeL]L[NMeV])), for which the “Area rate of hair regrowth (%)” value with Female C57BL/6 mice is given as 90%.
Take `C/C=C/C[C@@H](C)[C@@H](O)[C@H]1C(=O)N[C@@H](CC)C(=O)N(C)[C@H](C)C(=O)N(C)[C@@H](CC(C)(C)O)C(=O)N[C@@H](C(C)C)C(=O)N(C)[C@@H](CC(C)C)C(=O)N[C@@H](C)C(=O)N[C@H](C)C(=O)N(C)[C@@H](CC(C)C)C(=O)N(C)[C@@H](CC(C)C)C(=O)N(C)[C@@H](C(C)C)C(=O)N1C` [[N-methyl-D-alanine^3][γ-hydroxy-N-methyl-L-leucine^4] cyclosporin A] (cyclo([MeBmt][Abu][dNMeA][NMeLeu(4-OH)]V[NMeL]A[dA][NMeL][NMeL][NMeV])): the “immunosuppressive activity (in words)” value in test [1] is “reduced”. In the test with Female C57BL/6 mice, the “Area rate of hair regrowth (%)” value came to 95% and the “hair restoring / hair growth promoting effect (in words)” value is recorded as “has a hair restoring effect”.
